# Reference: patent US10118954B2, “Apelin analogues” (University of Ulster, priority 2014, dated 2018)
# How the values were obtained:
# [1] = Degradation of apelin peptides by plasma from fasted normal NIH Swiss mice (rp-HPLC, MALDI-TOF MS); assay type: in vitro ADME
# How it was run: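 Apelin peptides were incubated with plasma from fasted normal NIH Swiss mice for 4 h, and the reaction was stopped with TFA. Products were separated by C-8 rp-HPLC with detection at 214 nm. Peak fractions were identified by MALDI-TOF MS, giving fragment molecular weights and retention times.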
# [2] = tested on: NIH Swiss mice fed a high-fat diet for 150 days; assay: Acute and delayed i.p. glucose tolerance test, blood glucose and plasma insulin; assay type: in vivo; conditions: fatty acid derived agonists
# How it was run: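 Diet-induced obese-diabetic mice (high-fat diet 150 days, 18 h fasted) received i.p. glucose (18 mmol/kg) alone or with apelin analogues (25 nmol/kg), or analogues given 2, 8 or 16 h beforehand. Tail blood glucose and plasma insulin sampled at 0, 15, 30, 60, 105 min; n=8, mean±SEM.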
# [3] = NIH Swiss, mouse, plasma, pH 7.4
# [4] = 16 h delayed i.p. glucose tolerance test, 25 nmol/kg
# [5] = acute i.p. glucose tolerance test, 25 nmol/kg
smiles,measurement,setting,value
CCCCCCCCCCCCCCCC(=O)N[C@@H](CCC(=O)NCCCC[C@H](NC(=O)[C@H](Cc1c[nH]cn1)NC(=O)[C@H](CO)NC(=O)[C@H](CC(C)C)NC(=O)[C@H](CCCNC(=N)N)NC(=O)[C@@H]1CCCN1C(=O)[C@H](CCCNC(=N)N)NC(=O)[C@@H]1CCC(=O)N1)C(=O)NCC(=O)N1CCC[C@H]1C(=O)N[C@@H](CCSC)C(=O)N1CCC[C@H]1C(=O)N[C@@H](Cc1ccccc1)C(N)=O)C(=O)O [pGlu(Lys^8GluPAL)apelin-13-amide],Rank order of stability,[1],=1
same,Half-life (t1/2),"[1]; NIH Swiss, mouse, plasma, 263 µg/mL, pH 7.4",>24 h
same,half-life at 263 µg/mL,[1]; [3],> 24 h
same,"remaining at 4 h, 263 µg/mL",[1]; [3],100%
same,Rank order on basis of anti-hyperglycaemic efficacy,[2]; 16 h delay,1
same,Blood glucose as percent of glucose-alone control (lower = stronger glucose lowering),[2]; [4],57% (**)
same,"Insulin secretion, where glucose alone = 100%",[2]; [4],150% (***)
same,Rank order on basis of anti-hyperglycaemic efficacy,[2]; acute,1
same,"Glucose lowering, where glucose alone = 100%",[2]; [5],79%
same,"Insulin secretion, where glucose alone = 100%",[2]; [5],119% (*)
